Laboratory results: BindingDB's records for doi:10.1016/j.bmcl.2006.04.011 (Ambrilia Biopharma, 2006)

Target: T1, Dimer of Gag-Pol polyprotein [501-599] (Human immunodeficiency virus 1, UniProt P03367)
T1 construct: 501-599
Experiment: Protease Inhibition Assay
Procedure: HIV-1 protease activity was measured by a continuous fluorometric assay. The proteolytic activity can be monitored by the increase in fluorescence intensity, and the protease products were analyzed by HPLC. IC50 values were determined from a dose-response curve, whereas Ki values were obtained by fitting initial rates to a tight-binding inhibition equation.

Compound | IC50 | IC50 (pH 4.7, 30 °C) | Ki
CC(=O)N[C@H](C(=O)NCCCCC(CO)N(CC(C)C)S(=O)(=O)c1ccc(N)cc1)C(c1ccccc1)c1ccccc1 (stereo partly drawn) [(2S)-N-[(5R)-5-[(4-aminobenzene)(2-methylpropyl)sulfonamido]-6-hydroxyhexyl]-2-acetamido-3,3-diphenylpropanamide] | 1.5 nM |  | 
COC(=O)N[C@@H](CCc1ccccc1)C(=O)NCCCCC(CO)N(CC(C)C)S(=O)(=O)c1ccc(N)cc1 (stereo partly drawn) [methyl N-[(1S)-1-{[(5R)-5-[(4-aminobenzene)(2-methylpropyl)sulfonamido]-6-hydroxyhexyl]carbamoyl}-3-phenylpropyl]carbamate] |  | 40 nM | 
CC(C)CN(C(CO)CCCCNC(=O)[C@@H](NC(=O)c1ccncc1)C(c1ccccc1)c1ccccc1)S(=O)(=O)c1ccc(N)cc1 (stereo partly drawn) [(2S)-N-[(5R)-5-[(4-aminobenzene)(2-methylpropyl)sulfonamido]-6-hydroxyhexyl]-3,3-diphenyl-2-(pyridin-4-ylformamido)propanamide] | 0.65 nM |  | 0.66 nM
CC(C)CN(C(CO)CCCCNC(=O)[C@@H](NC(=O)N1CCOCC1)C(c1ccccc1)c1ccccc1)S(=O)(=O)c1ccc(N)cc1 (stereo partly drawn) [(2S)-N-[(5R)-5-[(4-aminobenzene)(2-methylpropyl)sulfonamido]-6-hydroxyhexyl]-2-(morpholin-4-ylcarbonylamino)-3,3-diphenylpropanamide] | 0.51 nM |  | 0.55 nM
CC(C)CN(C(CO)CCCCNC(=O)[C@@H](NC(=O)C1CC1)C(c1ccccc1)c1ccccc1)S(=O)(=O)c1ccc(N)cc1 (stereo partly drawn) [(2S)-N-[(5R)-5-[(4-aminobenzene)(2-methylpropyl)sulfonamido]-6-hydroxyhexyl]-2-(cyclopropylformamido)-3,3-diphenylpropanamide] | 0.43 nM |  | 0.45 nM
CC(C)CN(C(CO)CCCCNC(=O)[C@@H](NC(=O)c1ccccc1O)C(c1ccccc1)c1ccccc1)S(=O)(=O)c1ccc(N)cc1 (stereo partly drawn) [(2S)-N-[(5R)-5-[(4-aminobenzene)(2-methylpropyl)sulfonamido]-6-hydroxyhexyl]-2-[(2-hydroxyphenyl)formamido]-3,3-diphenylpropanamide] | 0.63 nM |  | 0.58 nM
